Results as given in patent US20190194209A1, “PYRAZOLE CARBOXAMIDE COMPOUNDS AND METHODS OF USE” (Genentech, Inc., priority 2014, published 2019).

molecular target: T1, full length human wildtype Btk (Homo sapiens, UniProt Q06187); experiment: Biochemical Btk Kinase Assay (Example 901); conditions: read-out: BTK LC3K (Ki)
T1 construct: V5 (C); 6xHis (C); made in house; host or cells: Sf9 cells (baculovirus, pFastBac)
Description: Formula I compounds were tested by a standard biochemical Btk, Kinase Assay (Example 901). A generalized procedure for a standard biochemical Btk, Kinase Assay that can be used to test Formula I compounds is as follows. A master mix minus Btk enzyme is prepared containing 1× Cell Signaling kinase buffer (25 mM Tris-HCl, pH 7.5, 5 mM beta-glycerophosphate, 2 mM dithiothreitol, 0.1 mM Na3VO4, 10 mM MgCl2), 0.5 μM Promega PTK Biotinylated peptide substrate 2, and 0.01% BSA. A master mix plus Btk enzyme is prepared containing 1× Cell Signaling kinase buffer, 0.5 μM (micromolar) PTK Biotinylated peptide substrate 2, 0.01% BSA, and 100 ng/well (0.06 mU/well) Btk enzyme. Btk enzyme is prepared as follows: full length human wildtype Btk (accession number NM-000061) with a C-terminal V5 and 6×His tag was subcloned into pFastBac® vector (Invitrogen/Life Technologies) for making baculovirus carrying this epitope-tagged Btk. Generation of baculovirus is done based on Invitrogen's instructions detailed in its published protocol “Bac-to-Bac Baculovirus Expression Systems” (Invitrogen/Life Technologies, Cat. Nos. 10359-016 and 10608-016). Passage 3 virus is used to infect Sf9 cells to overexpress the recombinant Btk protein. The Btk protein is then purified to homogeneity using Ni-NTA column. The purity of the final protein preparation is greater than 95% based on the sensitive Sypro-Ruby staining. A solution of 200 μM ATP is prepared in water and adjusted to pH 7.4 with 1N NaOH. A quantity of 1.25 μL (microliter) of compounds in 5% DMSO is transferred to a 96-well 2 area Costar polystyrene plate. Compounds are tested singly and with an 11-point dose-responsive curve (starting concentration is 10 μM; 1:2 dilution). A quantity of 18.75 μL of master mix minus enzyme (as a negative control) and master mix plus enzyme is transferred to appropriate wells in 96-well 2 area costar polystyrene plate. 5 μL of 200 μM ATP is added to that mixture in the 96-well 2 area Costar polystyrene plate for final ATP concentration of 40 μM. The reaction is allowed to incubate for 1 hour at room temperature. The reaction is stopped with Perkin Elmer 1× detection buffer containing 30 mM EDTA, 20 nM SA-APC, and 1 nM PT66 Ab. The plate is read using time-resolved fluorescence with a Perkin Elmer Envision using excitation filter 330 nm, emission filter 665 nm, and 2nd emission filter 615 nm. IC50 values are subsequently calculated. Alternatively, the Lanthascreen assay can be used to evaluate Btk activity through quantification of its phosphorylated peptide product. The FRET (Fluorescence Resonance Energy Transfer) that occurs between the fluorescein on the peptide product and the terbium on the detection antibody decreases with the addition of inhibitors of Btk that reduce the phosphorylation of the peptide. In a final reaction volume of 25 μL (microliters), Btk (h) (0.1 ng/25 μl reaction) is incubated with 50 mM Hepes pH 7.5, 10 mM MgCl2, 2 mM MnCl2, 2 mM DTT, 0.2 mM NaVO4, 0.01% BSA, and 0.4 uM fluorescein poly-GAT. The reaction is initiated by the addition of ATP to 25 μM (micromolar) the Km of ATP. After incubation for 60 minutes at room temperature, the reaction is stopped by the addition of a final concentration of 2 nM Tb-PY20 detection antibody in 60 mM EDTA for 30 minutes at room temperature. Detection is determined on a Perkin Elmer Envision with 340 nm excitation and emission at 495 nm and 520 nm. Exemplary Btk inhibition […] values are in Table 1.

T1 sequence (Q06187 whole entry): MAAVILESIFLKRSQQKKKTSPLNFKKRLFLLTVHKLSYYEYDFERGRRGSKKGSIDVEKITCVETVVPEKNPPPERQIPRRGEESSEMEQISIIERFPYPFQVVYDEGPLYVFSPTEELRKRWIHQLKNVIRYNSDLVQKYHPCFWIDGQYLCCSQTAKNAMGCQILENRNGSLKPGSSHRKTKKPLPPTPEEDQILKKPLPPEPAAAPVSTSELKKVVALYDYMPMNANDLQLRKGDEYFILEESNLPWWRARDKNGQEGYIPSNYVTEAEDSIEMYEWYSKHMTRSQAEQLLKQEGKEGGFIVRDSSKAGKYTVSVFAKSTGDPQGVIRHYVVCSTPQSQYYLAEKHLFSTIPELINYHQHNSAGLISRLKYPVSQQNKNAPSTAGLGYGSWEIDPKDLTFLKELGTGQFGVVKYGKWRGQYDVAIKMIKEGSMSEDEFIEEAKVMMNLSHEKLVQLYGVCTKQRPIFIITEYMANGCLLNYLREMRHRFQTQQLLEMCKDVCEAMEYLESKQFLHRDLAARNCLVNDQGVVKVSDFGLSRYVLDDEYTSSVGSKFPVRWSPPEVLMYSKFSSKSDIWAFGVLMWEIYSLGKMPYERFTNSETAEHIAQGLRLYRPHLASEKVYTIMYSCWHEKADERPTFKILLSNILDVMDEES

| Ki [nM] | Structure (SMILES) |
| --- | --- |
| 143 | CN1CCN(C(=O)c2ccc(-c3nn(-c4ccnc(-n5ncc6cc(C(C)(C)C)cc(F)c6c5=O)c4CO)cc3C(N)=O)cc2)CC1 [Example 131, 1-[2-(6-tert-butyl-8-fluoro-1-oxo-phthalazin-2-yl)-3-(hydroxymethyl)-4-pyridyl]-3-[4-(4-methylpiperazine-1-carbonyl)phenyl]pyrazole-4-carboxamide] |
| 43.8 | CN(C)CCNC(=O)c1cccc(-c2nn(-c3ccnc(-n4ncc5cc(C(C)(C)C)cc(F)c5c4=O)c3CO)cc2C(N)=O)c1 [Example 130, 1-[2-(6-tert-butyl-8-fluoro-1-oxo-phthalazin-2-yl)-3-(hydroxymethyl)-4-pyridyl]-3-[3-[2-(dimethylamino)ethylcarbamoyl]phenyl]pyrazole-4-carboxamide] |
| 155 | CC(C)(C)c1cc(F)c2c(=O)n(-c3nccc(-n4cc(C(N)=O)c(-c5ccc(CO)cc5)n4)c3CO)ncc2c1 [Example 141, 1-[2-(6-tert-butyl-8-fluoro-1-oxo-phthalazin-2-yl)-3-(hydroxymethyl)-4-pyridyl]-3-[4-(hydroxymethyl)phenyl]pyrazole-4-carboxamide] |
| 33.9 | CCCC(=O)Nc1nn(-c2ccnc(N3CCn4c(cc5c4CC(C)(C)C5)C3=O)c2CO)cc1C(N)=O [Example 128, 3-(butanoylamino)-1-[2-(7,7-dimethyl-4-oxo-1,2,6,8-tetrahydrocyclopenta[3,4]pyrrolo[3,5-b]pyrazin-3-yl)-3-(hydroxymethyl)-4-pyridyl]pyrazole-4-carboxamide] |
| 184 | CC(C)(C)c1cc(F)c2c(=O)n(-c3nccc(-n4cc(C(N)=O)c(-c5ccccc5)n4)c3CO)ncc2c1 [Example 114, 1-[2-(6-tert-butyl-8-fluoro-1-oxo-phthalazin-2-yl)-3-(hydroxymethyl)-4-pyridyl]-3-phenyl-pyrazole-4-carboxamide] |
| 50.7 | CN1CCN(c2cc(-c3nn(-c4ccnc(-n5ncc6cc(C(C)(C)C)cc(F)c6c5=O)c4CO)cc3C(N)=O)ccn2)CC1 [Example 136, 1-[2-(6-tert-butyl-8-fluoro-1-oxo-phthalazin-2-yl)-3-(hydroxymethyl)-4-pyridyl]-3-[2-(4-methylpiperazin-1-yl)-4-pyridyl]pyrazole-4-carboxamide] |
| 100 | CC(C)(C)c1cc(F)c2c(=O)n(-c3nccc(-n4cc(C(N)=O)c(-c5ccncc5)n4)c3CO)ncc2c1 [Example 143, 1-[2-(6-tert-butyl-8-fluoro-1-oxo-phthalazin-2-yl)-3-(hydroxymethyl)-4-pyridyl]-3-(4-pyridyl)pyrazole-4-carboxamide] |
| 124 | CC(C)(C)c1cc(F)c2c(=O)n(-c3nccc(-n4cc(C(N)=O)c(-c5cccnc5)n4)c3CO)ncc2c1 [Example 144, 1-[2-(6-tert-butyl-8-fluoro-1-oxo-phthalazin-2-yl)-3-(hydroxymethyl)-4-pyridyl]-3-(3-pyridyl)pyrazole-4-carboxamide] |
| 115 | CC(=O)Nc1ccc(-c2nn(-c3ccnc(-n4ncc5cc(C(C)(C)C)cc(F)c5c4=O)c3CO)cc2C(N)=O)cn1 [Example 137, 3-(6-acetamido-3-pyridyl)-1-[2-(6-tert-butyl-8-fluoro-1-oxo-phthalazin-2-yl)-3-(hydroxymethyl)-4-pyridyl]pyrazole-4-carboxamide] |
| > 500 | CC(C)(C)c1cc(F)c2c(=O)n(-c3nccc(-n4cc(C(N)=O)c(-c5cnc6[nH]ccc6c5)n4)c3CO)ncc2c1 [Example 132, 1-[2-(6-tert-butyl-8-fluoro-1-oxo-phthalazin-2-yl)-3-(hydroxymethyl)-4-pyridyl]-3-(1H-pyrrolo[2,3-b]pyridin-5-yl)pyrazole-4-carboxamide] |
| 124 | CC1(C)Cc2cc3n(c2C1)CCN(c1nccc(-n2cc(C(N)=O)cn2)c1CO)C3=O [Example 113, 1-[2-(7,7-dimethyl-4-oxo-1,2,6,8-tetrahydrocyclopenta[3,4]pyrrolo[3,5-b]pyrazin-3-yl)-3-(hydroxymethyl)-4-pyridyl]pyrazole-4-carboxamide] |
| > 500 | CC(C)(C)c1cc(F)c2c(=O)n(-c3nccc(-n4cc(C(N)=O)c(-c5cncc(S(C)(=O)=O)c5)n4)c3CO)ncc2c1 [Example 139, 1-[2-(6-tert-butyl-8-fluoro-1-oxo-phthalazin-2-yl)-3-(hydroxymethyl)-4-pyridyl]-3-(5-methylsulfonyl-3-pyridyl)pyrazole-4-carboxamide] |
| > 500 | CC(C)(C)c1cc(F)c2c(=O)n(-c3nccc(-n4cc(C(N)=O)c(-c5cnc6ccccc6c5)n4)c3CO)ncc2c1 [Example 140, 1-[2-(6-tert-butyl-8-fluoro-1-oxo-phthalazin-2-yl)-3-(hydroxymethyl)-4-pyridyl]-3-(3-quinolyl)pyrazole-4-carboxamide] |
| 0.296 | C[C@H]1CN(C2COC2)CCN1c1ccc(Nc2nn(-c3ccnc(N4CCn5c(cc6c5CC(C)(C)C6)C4=O)c3CO)cc2C(N)=O)nc1 [Example 125, 1-[2-(7,7-dimethyl-4-oxo-1,2,6,8-tetrahydrocyclopenta[3,4]pyrrolo[3,5-b]pyrazin-3-yl)-3-(hydroxymethyl)-4-pyridyl]-3-[[5-[(2S)-2-methyl-4-(oxetan-3-yl)piperazin-1-yl]-2-pyridyl]amino]pyrazole-4-carboxamide] |
| 104 | CC(C)(C)c1cc(F)c2c(=O)n(-c3nccc(-n4cc(C(N)=O)c(-c5cnc(N)cn5)n4)c3CO)ncc2c1 [Example 129, 3-(5-aminopyrazin-2-yl)-1-[2-(6-tert-butyl-8-fluoro-1-oxo-phthalazin-2-yl)-3-(hydroxymethyl)-4-pyridyl]pyrazole-4-carboxamide] |
| 26.9 | CC(C)Cn1cc(-c2nn(-c3ccnc(-n4ncc5cc(C(C)(C)C)cc(F)c5c4=O)c3CO)cc2C(N)=O)cn1 [Example 134, 1-[2-(6-tert-butyl-8-fluoro-1-oxo-phthalazin-2-yl)-3-(hydroxymethyl)-4-pyridyl]-3-(1-isobutylpyrazol-4-yl)pyrazole-4-carboxamide] |
| 135 | CC(C)(C)c1cc(F)c2c(=O)n(-c3nccc(-n4cc(C(N)=O)c(-c5cncnc5)n4)c3CO)ncc2c1 [Example 142, 1-[2-(6-tert-butyl-8-fluoro-1-oxo-phthalazin-2-yl)-3-(hydroxymethyl)-4-pyridyl]-3-pyrimidin-5-yl-pyrazole-4-carboxamide] |
| 13.8 | CC(=O)Nc1nn(-c2ccnc(N3CCn4c(cc5c4CC(C)(C)C5)C3=O)c2CO)cc1C(N)=O [Example 124, 3-acetamido-1-[2-(7,7-dimethyl-4-oxo-1,2,6,8-tetrahydrocyclopenta[3,4]pyrrolo[3,5-b]pyrazin-3-yl)-3-(hydroxymethyl)-4-pyridyl]pyrazole-4-carboxamide] |
| 15.6 | CN1CCN(c2ccc(-c3nn(-c4ccnc(-n5ncc6cc(C(C)(C)C)cc(F)c6c5=O)c4CO)cc3C(N)=O)cn2)CC1 [Example 135, 1-[2-(6-tert-butyl-8-fluoro-1-oxo-phthalazin-2-yl)-3-(hydroxymethyl)-4-pyridyl]-3-[6-(4-methylpiperazin-1-yl)-3-pyridyl]pyrazole-4-carboxamide] |
| 82.7 | CC(C)(C)c1cc(F)c2c(=O)n(-c3nccc(-n4cc(C(N)=O)c(-c5ccc(O)nc5)n4)c3CO)ncc2c1 [Example 138, 1-[2-(6-tert-butyl-8-fluoro-1-oxo-phthalazin-2-yl)-3-(hydroxymethyl)-4-pyridyl]-3-(6-hydroxy-3-pyridyl)pyrazole-4-carboxamide] |
| 156 | CC(C)(C)c1cc(F)c2c(=O)n(-c3nccc(-n4cc(C(N)=O)c(-c5ccc(CN)cc5)n4)c3CO)ncc2c1 [Example 133, 3-[4-(aminomethyl)phenyl]-1-[2-(6-tert-butyl-8-fluoro-1-oxo-phthalazin-2-yl)-3-(hydroxymethyl)-4-pyridyl]pyrazole-4-carboxamide] |
